The text below walks through data of patent publication US8993556B2, “Resorcinol derivatives as HSP90 inhibitors” (priority 2009, dated 2015).

Like-named read-outs stand apart in the source and are kept apart here.

The TGI is how far tumour growth fell short of that in controls. High values mean much slowing of growth, low ones little slowing of growth. What is called Kd is a measure of binding affinity in units of concentration. A lower Kd goes with a tighter complex. In general, bioavailability refers to dose-corrected exposure relative to a reference, in per cent.

Series [1] relates to human ovarian carcinoma cell line A2780 transplanted in immunodeficient mice. In words: In Vivo Antitumor Efficacy. Details: species or system mouse. Conditions: for TGI: A2780 in athymic mice. The method, then: Antitumor activity of HSP90 inhibitors was assessed in vivo using the human ovarian carcinoma cell line A2780 transplanted in immunodeficient mice.
Balb Nu/Nu, male mice, (athymic mice) from Harlan, Italy, were maintained in cages with paper filter covers, food and bedding sterilized and water acidified. A2780 tumors were maintained in vivo by serial transplantation and, at the time of efficacy experiments, implanted subcutaneously in athymic mice. The treatments started 8 days later when the tumors were palpable. HSP90 inhibitors were prepared immediately before use and administered intravenously in a volume of 10 ml/kg at different doses.
Tumor growth was assessed by caliper. The two diameters were recorded, and the tumor weight was calculated according to the following formula: length (mm)×width^2 (mm)/2. The effect of the antitumor treatment was determined as tumor growth inhibition (TGI %) of treated group respect to vehicle treated controls.

Series [2] deals with A2780 human ovarian cells. In words: In Vitro Cell Proliferation Assay. The series is classed as cell-based. Here is the method:
The cells were incubated at 37° C. and 5% CO2 and after 72 hours the plates were processed using CellTiter-Glo assay (Promega) following the manufacturer's instruction.
CellTiter-Glo is a homogenous method based on the quantification of the ATP present, an indicator of metabolically active cells. ATP is quantified using a system based on luciferase and D-luciferin resulting into light generation. The luminescent signal is proportional to the number of cells present in culture.
Briefly 25 μL/well reagent solution are added to each wells and after 5 minutes shacking microplates are red by a luminometer. The luminescent signal is proportional to the number of cells present in culture.

In a further series the target is His-HSP90 N-term domain. As to the kind of experiment: Determination of KD Via Biacore. In kind it is binding. Conditions: Biacore T100. Here is the method: The evaluation of the binding affinity (KD) of the compounds of formula (I) to the HSP90 protein was done using Biacore T100.
His-HSP90 N-term domain was immobilized by capture of his tag by the Ab previously covalently bound to the chip (CM5) surface.
The compounds were analyzed using the following running buffer: 20 mM Tris/HCl pH 7.6, 150 mM KCl, 5 mM MgCl2, 0.05% P20 and 1% DMSO. The flow rate was 50 ul/min with and association time of 60 seconds.
The cpds were diluted in running buffer from 100× stock solution; the different conc injected were obtained from a sequential dilution in order to have the same DMSO conc. in each sample and avoid any solvent correction.
A general note: Surface plasmon resonance follows binding to a sensor surface in real time, without labels.

A further series is described as follows: in vivo. The note with it: Mouse Balb Nu/Nu, single. Here is the method: Calibration Standards and Quality Controls were prepared spiking blank mouse plasma with appropriate working solutions.
Sample plasma proteins were precipitated by adding 160 μL of acetonitrile/methanol 90/10 to 20 μL of mouse plasma in a 96 well plate.
After heat sealing and mixing for 3 minutes, the plate was centrifuged for 15 minutes at 4000 rpm.
The supernatant was considered as final extract and injected onto the LC-MS-MS system.
• UPLC system: Waters Acquity BSM • Mobile phase A: 95:5-5 mM Ammonium Formate pH3.5: Acetonitrile • Mobile phase B: 5:95-5 mM Ammonium Formate pH3.5: Acetonitrile • Analytical column: BEH C18 50×2.1 1.7 μm • Elution conditions:
• Total Run Time: 2.0 min. • Flow rate: 0.500 mL/min • Approximate retention time: NMS-03308086: 0.67 min. • Column oven temp: 40° C. • Autosampler type: Waters Acquity SM • Injection volume: 3 μL • Injection mode: Partial Loop with Needle Overfill • Autosampler temperature: 5° C. • MS instrument: Waters TQD • Ionisation: ES+ • Capillary: 1.5 kV • Cone: 70 V • Source Temperature: 150° C. • Desolvation Flow and Temp.: 900 L/h-400° C. • Collision Gas Flow: 0.2 mL/min • Collision Energy: 40 • MRM transitions: NMS-03308086: m/z 579.1>m/z 97.0 • Dwell Time: 0.1 seconds • LLOQ: 5.0 ng/mL • ULOQ: 5000 ng/mL • Software used: Mass Lynx 4.1 SCN627

Series [3] concerns Her2 protein levels in BT474 breast cancer cells. In words: Her2 Degradation Assay. In kind it is cell-based. The note with it: Homo sapiens. Here is the method:
The potencies of the compounds of the present invention were evaluated by measuring the Her2 degradation as a marker for HSP90 inhibition.
HSP90 is a key component of a chaperone machinery that catalyzes the folding and quality control of several proteins. Its inhibition impairs the capacity to fold or stabilize its client proteins, leading to the proteosomal dependent degradation of these unfolded proteins. […] Cellular activity of HSP90 inhibitors was assessed by measuring the induced loss of Her2 protein levels in BT474 breast cancer cells (ATCC #HTB-20). Cellular Her2 levels were measured by immunocytochemistry, and quantified using an ArrayScan vTi instrument (Cellomics Thermo Scientific).
Cellular activity of HSP90 inhibitors was assessed by measuring the induced loss of Her2 protein levels in BT474 breast cancer cells (ATCC #HTB-20). Cellular Her2 levels were measured by immunocytochemistry, and quantified using an ArrayScan vTi instrument (Cellomics Thermo Scientific).
Studies were performed as follows: 5000 cells/well are seeded in 96 well plates (Perkin Elmer) in DMEM/5% FCS and incubated for 48 hours at 37° C., 5% CO2.
Medium is then replaced with fresh medium containing test compounds at the required concentration. Concentration curves are prepared in DMEM/10% FCS from compound stocks in DMSO, and final DMSO concentration is 0.1% (v/v). Duplicate wells for each concentration point are prepared, with a typical highest compound concentration of 30 μM. […] Plates are incubated for 20 minutes at room temperature, then wells are washed in PBS and cells permiabilised by incubating with PBS containing 0.3% Triton X-100 for 15 minutes at room temperature. Non-specific binding sites are blocked by incubating wells for 1 hour in PBS containing 3% (w/v) BSA. Wells are then incubated for 1 hour at room temperature in PBS containing anti Her2 mouse monoclonal (Anti-c-ErbB2/c-Neu, Mouse mAb 3B5, Calbiochem Cat N^o OP15) diluted 1:100 in 1% (w/v) BSA. […] After washing a further 3 times in PBS, cellular Her2 immunoreactivity is assessed using the ArrayScan vTi instrument, with a Zeiss 10× 0.5 N.A. objective, and applying the Cytotoxity.V3 algorithm (Cellomics/Thermo Fisher) with a XF100 filter. At least 10 fields, corresponding to at least 900 cells, are read for each well.
IC50 is the response; IC50 starts at Bottom and goes to Top with a sigmoid shape. In Vitro Cell Proliferation Assay

Setting [4] is: Homo sapiens, A2780, 72 h, read-out: A2780 Proliferation IC50 (μM).
Setting [5] is: BT-474, 8 h, read-out: Her2 Degradation IC50 (μM).
The mark [6] stands for this setting: BT-474, BT474 breast cancer cells, 8 hours, read-out: Her2 Degradation IC50.

In turn, `CN1CCC(NC(=O)c2cc(-c3c(O)cc(O)cc3Oc3ccc(N(C)C)cc3)no2)CC1` [3-{2-[4-(Dimethylamino)phenoxy]-4,6-dihydroxyphenyl}-N-(1-methylpiperidin-4-yl)isoxazole-5-carboxamide] gave a TGI in series [1] (intravenously at 40 mkg/kg every three days) of 88%. Besides, the IC50 is 0.03 µM in series [2] (setting [4]) and 0.008 µM in series [3] (setting [5]). On His-HSP90 N-term domain, this molecule showed a Kd of 0.066 nM. The clearance in the series “in vivo” (10 mg/kg IV bolus, read-out: CL (mL/h/kg) Plasma clearance (converted)) was 3430 mL/h/kg. Also, the half-life in the series “in vivo” (10 mg/kg IV bolus, read-out: T1/2 (h) Terminal half-life (converted)) is 5.12 h. Moreover, in the series “in vivo” (10 mg/kg IV bolus, read-out: Vdss (mL/kg) Volume of distribution at steady state), the Vd came out at 12500 mL/kg. Also, in the series “in vivo” (10 mg/kg oral vs 10 mg/kg IV, read-out: F % Oral bioavailability), the bioavailability was 25%.
For `CN1CCC(NC(=O)c2cc(-c3c(O)cc(O)cc3Oc3ccc([N+](=O)[O-])cc3)on2)CC1` [5-[2,4-dihydroxy-6-(4-nitrophenoxy)phenyl]-N-(1-methylpiperidin-4-yl)isoxazole-3-carboxamide], the TGI worked out at 53% in series [1] (30 mg/kg for 10 consecutive days, intravenously) and 74% in series [1] (60 mg/kg for 10 consecutive days, intravenously). For the same molecule, the signs of toxicities result in series [1] (30 and 60 mg/kg for 10 consecutive days, athymic mice) is given as “without signs of toxicities”. In addition, the IC50 turned out to be 0.06 µM in series [2] (A2780 human ovarian cells, 72 hours, CellTiter-Glo, read-out: A2780 Proliferation IC50) and 0.11 µM in series [3] (setting [6]).
`CN1CCC(NC(=O)c2cc(-c3c(O)cc(O)cc3Oc3ccc(N(C)C)cc3)on2)CC1` [5-{2-[4-(Dimethylamino)phenoxy]-4,6-dihydroxyphenyl}-N-(1-methylpiperidin-4-yl)isoxazole-3-carboxamide] gave a TGI in series [1] (intravenously at 40 mg/Kg daily) of 77%. In series [3] (setting [6]), the IC50 turned out to be 0.039 µM.
In turn, `CN(C)c1ccc(Oc2cc(O)cc(O)c2-c2cc(C(=O)NC3CCN(C4CCC5(CC4)OCCCO5)CC3)no2)cc1` [5-{2-[4-(Dimethylamino)phenoxy]-4,6-dihydroxyphenyl}-N-[1-(1,5-dioxaspiro[5.5]undec-9-yl)piperidin-4-yl]isoxazole-3-carboxamide] returned a TGI in series [1] (intravenously at 30 mg/Kg daily) of 92%. Also, the IC50 in series [2] (setting [4]) was 0.021 µM; in series [3] (setting [5]), 0.038 µM. Moreover, the Kd at His-HSP90 N-term domain was found to be 0.079 nM.
